Measurements taken from patent US20240350522A1, “HYGROMYCIN A FOR TREATMENT OF DISEASES AND INFECTIONS” (FLIGHTPATH BIOSCIENCES, INC., priority 2021, published 2024).
Several values for one entry are separate records, joined by “and”; a condition that tells them apart may be missing. Equal values may be shown once. Read-outs that look alike come from different tables or passages of the source.

Legend:
Format in all cases: cell-based
Treponema denticola = test: MIC of Hyg A against Treponema denticola strains (broth dilution, phenol red); settings: for MIC: Treponema denticola
[1] = system: Streptococcus salivarius ATCC13419; test: MIC of Hyg A against S. salivarius
[2] = system: Fusobacterium nucleatum (ATCC 25586); test: MIC of Hyg A against F. nucleatum ATCC 25586; settings: ATCC25586
[3] = system: Parvimonas micra (ATCC 33270); test: MIC of Hyg A against P. micra; settings: ATCC33270
[4] = system: Porphyromonas gingivalis (ATCC 33277); test: MIC of Hyg A against P. gingivalis (OD600, dark field microscopy)
[5] = system: Streptococcus salivarius ATCC13419; test: MBC of Hyg A against S. salivarius
[6] = system: Fusobacterium nucleatum (ATCC 25586); test: MBC of Hyg A against F. nucleatum ATCC 25586; settings: for MBC: ATCC25586
[7] = system: Parvimonas micra (ATCC 33270); test: MBC of Hyg A against P. micra; settings: for MBC: ATCC33270
[8] = system: Porphyromonas gingivalis (ATCC 33277); test: MBC of Hyg A against P. gingivalis
[9] = system: Treponema pallidum pallidum Chicago strain; test: T. pallidum susceptibility assay, co-culture with Sf1Ep cells, tp0574 (T47) qPCR after 7 days; settings: for Mean T47 copies/μL, Avg. / Mean T47 copies/μL, experimental values: 7 days; for Mean T47 copies/μL, Avg.: average of 8 replicates; for Mean T47 copies/μL, experimental values: replicate wells

Which results are given for `CC(=O)[C@H]1O[C@@H](Oc2ccc(/C=C(\C)C(=O)N[C@@H]3[C@H](O)[C@@H](O)[C@H]4OCO[C@H]4[C@@H]3O)cc2O)[C@@H](O)[C@@H]1O` [Hyg A, Hygromycin A]?
MIC (Treponema denticola; ATCC35404, ATCC 35404, strain most tolerant, read-out: MIC): 5 µg/mL; MIC (Treponema denticola; ATCC35404, ATCC strain 35404, range, read-out: MIC): 0.5 to 5 µg/mL; MIC (Treponema denticola; ATCC35405, Type strain ATCC 35405, read-out: MIC): 0.2 µg/mL; MIC (Treponema denticola; T. denticola 33520, experiment 1, read-out: MIC (μg/ml) 1): 1 µg/mL; MIC (Treponema denticola; T. denticola 33520, experiment 2, read-out: MIC (μg/ml) 2): 1 µg/mL; MIC (Treponema denticola; T. denticola 33521, experiment 1, read-out: MIC (μg/ml) 1): 0.5 µg/mL; MIC (Treponema denticola; T. denticola 33521, experiment 2, read-out: MIC (μg/ml) 2): 2 µg/mL; MIC (Treponema denticola; T. denticola 35404, experiment 1, read-out: MIC (μg/ml) 1): 0.5 to 1 µg/mL; MIC (Treponema denticola; T. denticola 35404, experiment 2, read-out: MIC (μg/ml) 2): 5 µg/mL; MIC (Treponema denticola; T. denticola 35405, experiment 1, read-out: MIC (μg/ml) 1): 0.2 µg/mL; MIC (Treponema denticola; T. denticola 35405, experiment 2, read-out: MIC (μg/ml) 2): 0.2 µg/mL; MIC (Treponema denticola; T. denticola ASLM, experiment 1, read-out: MIC (μg/ml) 1): 0.5 µg/mL; MIC (Treponema denticola; T. denticola ASLM, experiment 2, read-out: MIC (μg/ml) 2): 1 µg/mL; MIC (Treponema denticola; T. denticola H1-T, experiment 1, read-out: MIC (μg/ml) 1): 0.5 µg/mL; MIC (Treponema denticola; T. denticola H1-T, experiment 2, read-out: MIC (μg/ml) 2): 0.5 µg/mL; MIC (Treponema denticola; T. denticola OTK, experiment 1, read-out: MIC (μg/ml) 1): 0.5 µg/mL; MIC (Treponema denticola; T. denticola OTK, experiment 2, read-out: MIC (μg/ml) 2): 1 µg/mL; MIC (Treponema denticola; T. denticola SP44, experiment 1, read-out: MIC (μg/ml) 1): 1 µg/mL; MIC (Treponema denticola; T. denticola SP44, experiment 2, read-out: MIC (μg/ml) 2): 1 µg/mL; MIC (Treponema denticola; T. denticola US Trep, experiment 1, read-out: MIC (μg/ml) 1): 0.5 µg/mL; MIC (Treponema denticola; T. denticola US Trep, experiment 2, read-out: MIC (μg/ml) 2): 0.5 µg/mL; MIC (Treponema denticola; across T. denticola strains, read-out: MIC values for Treponema denticola strains, typical): ~0.5 µg/mL; MIC (Treponema denticola; low passage clinical isolate ASLM, read-out: MIC (Hyg A sensitivity)): 0.2 µg/mL; MIC (Treponema denticola; low passage clinical isolate SP44, read-out: MIC (Hyg A sensitivity)): 1 µg/mL; MIC values for Treponema denticola strains, range (Treponema denticola; across T. denticola strains): 0.2 to 1.0 µg/mL; MIC ([1]; Streptococcus salivarius ATCC13419, read-out: MIC): 10 µg/mL; MIC ([1]; Streptococcus salivarius, ATCC13419, 96 h, S. salivarius, 5% CO2, extended incubation (4 days), read-out: MIC): 20 µg/mL; MIC ([1]; Streptococcus salivarius, ATCC13419, S. salivarius 13419, experiment 1, read-out: MIC (μg/ml) 1): 10 µg/mL; MIC ([1]; Streptococcus salivarius, ATCC13419, S. salivarius 13419, experiment 2, read-out: MIC (μg/ml) 2): 10 µg/mL; MIC ([1]; Streptococcus salivarius, ATCC13419, S. salivarius, 5% CO2, 24 hours incubation, read-out: MIC): 10 µg/mL; MIC ([2]; Fusobacterium nucleatum ATCC 25586, read-out: MIC): ~1 µg/mL; MIC ([2]; Fusobacterium nucleatum, F. nucleatum 25586, experiment 1, read-out: MIC (μg/ml) 1): 1 µg/mL; MIC ([2]; Fusobacterium nucleatum, F. nucleatum 25586, experiment 2, read-out: MIC (μg/ml) 2): 1 µg/mL; MIC ([3]; Parvimonas micra ATCC 33270, read-out: MIC): 2 µg/mL; MIC ([3]; Parvimonas micra, P. micra 33270, experiment 1, read-out: MIC (μg/ml) 1): 2 µg/mL; MIC ([3]; Parvimonas micra, P. micra 33270, experiment 2, read-out: MIC (μg/ml) 2): 2 µg/mL; MIC ([4]; ATCC33277, P. gingivalis 33277, experiment 1, read-out: MIC (μg/ml) 1): 5 µg/mL; MIC ([4]; ATCC33277, P. gingivalis 33277, experiment 2, read-out: MIC (μg/ml) 2): 5 µg/mL; MIC:MBC ratio ([5]; S. salivarius 13419): 10; MBC ([5]; Streptococcus salivarius ATCC13419, read-out: MBC): 10 µg/mL; MBC ([5]; Streptococcus salivarius, ATCC13419, S. salivarius 13419, experiment 1, read-out: MBC (μg/ml) 1): 10 µg/mL; MBC ([5]; Streptococcus salivarius, ATCC13419, S. salivarius 13419, experiment 2, read-out: MBC (μg/ml) 2): 10 µg/mL; MBC ([6]; Fusobacterium nucleatum ATCC 25586, read-out: MBC): ~1 µg/mL; MIC:MBC ratio ([6]; F. nucleatum 25586): 1.0; MBC ([6]; Fusobacterium nucleatum, F. nucleatum 25586, experiment 1, read-out: MBC (μg/ml) 1): 1 µg/mL; MBC ([6]; Fusobacterium nucleatum, F. nucleatum 25586, experiment 2, read-out: MBC (μg/ml) 2): 1 µg/mL; MBC ([7]; Parvimonas micra ATCC 33270, read-out: MBC): > 10 µg/mL; type of effect (bactericidal/bacteriostatic) ([7]; P. micra): bacteriostatic; MIC:MBC ratio ([7]; P. micra 33270): >0.2; MBC ([7]; Parvimonas micra, P. micra 33270, experiment 1, read-out: MBC (μg/ml) 1): > 10 µg/mL; MBC ([7]; Parvimonas micra, P. micra 33270, experiment 2, read-out: MBC (μg/ml) 2): > 10 µg/mL; MBC ([8]; ATCC33277, P. gingivalis 33277, experiment 1, read-out: MBC (μg/ml) 1): > 5 µg/mL; MBC ([8]; ATCC33277, P. gingivalis 33277, experiment 2, read-out: MBC (μg/ml) 2): > 5 µg/mL; lowest concentration effective against growth (no significant difference to higher concentrations) ([9]; Chicago strain, ANOVA p<0.05): 0.12 µg/mL; Mean T47 copies/μL, Avg. ([9]; Hyg A 0.03 μg/ml): 7184 copies/μL; Mean T47 copies/μL, experimental values ([9]; Hyg A 0.03 μg/ml): 2531 copies/μL and 7304 copies/μL and 8369 copies/μL and 7552 copies/μL and 6189 copies/μL and 9263 copies/μL and 8429 copies/μL and 7834 copies/μL; Mean T47 copies/μL, Avg. ([9]; Hyg A 0.06 μg/ml): 1814 copies/μL; Mean T47 copies/μL, experimental values ([9]; Hyg A 0.06 μg/ml): 1336 copies/μL and 1882 copies/μL and 1716 copies/μL and 2225 copies/μL and 1815 copies/μL and 2044 copies/μL and 2022 copies/μL and 1476 copies/μL; Mean T47 copies/μL, Avg. ([9]; Hyg A 0.12 μg/ml): 674 copies/μL
